{"source": "paper PMC2719696", "about": "“Kinetics and Cellular Site of Glycolipid Loading Control the Outcome of Natural Killer T Cell Activation” (Immunity, 2009)", "key": {"[1]": {"tested_on": "GM1-enriched lipid rafts", "assay_type": "cell-based, mouse", "conditions": "JAWS II cells, 18 hr with 100 nM glycolipid"}, "[2]": {"tested_on": "detergent-resistant membrane microdomains", "assay": "Flow cytometry assay of αGalCer-mCD1d complex association with detergent-resistant membrane microdomains (JAWS II cells)", "assay_type": "cell-based, mouse", "conditions": "0.1% Triton X-100", "description": "The scale bar represents 10 μm. Results shown for individual cells were typical of >20 cells analyzed for each parameter with or without incubation with the indicated glycolipids. (B) Quantitation of colocalization shown in (A) for multiple randomly selected individual cells. Pearson correlation coefficient for the distribution of pixel densities for K253 or L363 fluorescence compared to cholera toxin B-specific fluorescence are plotted for each individual cell analyzed. Values for p were determined by one-way ANOVA. (C) Flow cytometry assay for αGalCer-mCD1d complex association with detergent-resistant membrane microdomains. […] Baseline fluorescence levels were recorded for 15 s, after which Triton X-100 was added to 0.1% (arrow) and recording was resumed for another ∼60 s. Each symbol indicates mean fluorescence intensity (MFI) averaged over 1 s of recording. […]\nAnother property of lipid rafts is their resistance to solubilization by nonionic detergents due to their enrichment in cholesterol, sphingomyelin, and saturated acyl chains ([Pike, 2008]). To assess the localization of αGalCer-mCD1d complexes in detergent insoluble microdomains, we used a flow-cytometry-based assay that quantitates the resistance of lipid-raft-associated transmembrane proteins to extraction by low concentrations of Triton X-100 ([Gombos et al., 2004a; Peng et al., 2007]). […]"}}, "data": [{"smiles": "CCCCCCCCCCCCCCC(O)C(O)C(COC1OC(CO)C(O)C(O)C1O)NC(=O)CCCCCCCCC", "note": "(stereo not shown) [αGalCer-C10:0]", "values": [{"measurement": "colocalization of L363 staining with CTxB staining", "setting": "[1]", "result": "extremely limited colocalization with CTxB staining"}, {"measurement": "extraction of mCD1d complexes (L363 staining) by detergent, in words", "setting": "[2]", "result": "mainly localized to detergent soluble nonraft domains"}]}, {"smiles": "CCCCCC=CCC=CCCCCCCCCCC(=O)NC(COC1OC(CO)C(O)C(O)C1O)C(O)C(O)CCCCCCCCCCCCCC", "note": "(stereo not shown) [αGalCer-C20:2]", "values": [{"measurement": "extraction of mCD1d complexes (L363 staining) by detergent, in words", "setting": "[2]", "result": "significant extraction by detergent"}]}, {"smiles": "CCCCCCCCCCCCCCCCCCCCCCCCCC(=O)NC(COC1OC(CO)C(O)C(O)C1O)C(O)C(O)CCCCCCCCCCCCCC", "note": "(stereo not shown) [αGalCer-C26:0, reference compound]", "values": [{"measurement": "colocalization of L363 staining with CTxB staining", "setting": "[1]", "result": "strong colocalization with CTxB staining"}]}]}
